The text below walks through data of publication PMC12114633, “α-Glucosidase Inhibition Mechanism and Anti-Hyperglycemic Effects of Flavonoids from Astragali Radix and Their Mixture Effects” (Pharmaceuticals, 2025).

In experiment [1] the target is T1, α-glucosidase (Saccharomyces cerevisiae, UniProt P53341).
T1 construct: purchased Shanghai Yuanye Biotechnology Co., Shanghai, China Lot No. M23HS178879 (catalogue number not given)
In words: Inhibitory kinetic analysis (Lineweaver–Burk plot). The experiment is classed as biochemical. Particulars: Lineweaver–Burk plots, pNPG 0.31–20 mM. The protocol:
The type of inhibition was determined by using the kinetics curve and the Lineweaver–Burk plot. […] These compounds were incubated with α-glucosidase at 37 °C for 30 min. After incubation, various concentrations of pNPG (0.31–20 mM) were added, and absorbance was measured at 405 nm. The Lineweaver–Burk plot was obtained by plotting 1/[S] on the x-axis and 1/v on the y-axis, where [S] represents substrate concentration and v represents the reaction velocity.

The next experiment relates to normal C57BL/6J mice. The experiment is described as follows: Oral sucrose test, postprandial blood glucose. The experiment is classed as in vivo. The settings on record: for Blood glucose levels: 30 min after sucrose 4 g/kg, n = 8, in mmol/L (unit assumed); for Rate of blood glucose reduction: vs model group, 30 min after sucrose. From the text: Male C57BL/6J mice of SPF grade, aged 6–8 weeks and weighing 18–22 g, were obtained from the Experimental Animal Science Department of Peking University. The mice were housed in a controlled environment with a 12:12 light/dark cycle and a constant temperature. They were provided with standard pellet feed and given free access to drinking water. To ensure acclimatization, the mice were allowed to adjust to the diet and housing conditions for one week prior to the experiment. All animal experiments were performed in compliance with the relevant laws and institutional guidelines for the care and use of laboratory animals in China. The experiments were approved by the Laboratory Animal Management and Ethics Committee of Peking University (LA2021443). Additionally, the certification number for the laboratory animal personnel is 1120111300011.
The 16 flavonoids were subsequently evaluated for their potential antihyperglycemic effects by using the oral sucrose test, which is commonly used to evaluate intestinal α-glucosidase inhibition in vivo [62]. Normal C57BL/6J mice were randomly divided into model groups and the 16 flavonoid compound groups (n = 8 per group), respectively. The flavonoids at different concentrations were suspended in 0.5% sodium carboxymethyl cellulose (CMC-Na). […] Fifteen minutes after drug administration, the mice were given a sucrose solution (4 g/kg). Blood samples were collected from the tail vein at 30 min after sucrose loading, and blood glucose levels were measured using an Accu-Chek Performa glucometer (Roche Diagnostics, SN: 79508621393, Shanghai, China). The rate of blood glucose reduction was calculated using the following Formula (4):(4) The rate of blood glucose reduction%=the model blood glucose-the sample blood glucose/the model blood glucose×100%

In experiment [2] the target is T1, α-glucosidase. In words: Mixture effects of flavonoid combinations on α-glucosidase. The experiment is classed as biochemical. The protocol:
(§1) The α-glucosidase inhibitory effects of flavonoids were evaluated as in a previous report with slight modifications (including changes in the concentrations of the enzyme, substrate, and Na2CO3). Briefly, 50 μL of phosphate-buffered saline (PBS, 0.1 M, pH 6.8), the test compound, and α-glucosidase (0.2 U/mL) were preincubated in a 96-well plate at 37 °C for 10 min. The reaction was then initiated by adding 50 μL of 5 mM pNPG as the substrate. Subsequently, the 96-well plate was incubated for an additional 30 min at 37 °C, then 50 μL of 0.2 M Na2CO3 was added to terminate the reaction. Absorbance was measured at under 405 nm.
The inhibitory activity of the composition was evaluated using the same method described in Section 3.2. […] The combination index (CI, Formula (3)) was subsequently used to assess the interactions between the compounds [60].(2) Y=Bottom+Top−Bottom/1+10^^((LogIC50−X)×HillSlope)
In Formula (3), (D)j represents the concentration of component j in the mixture needed to achieve an effect of x, while (Dx)j denotes the concentration of component j required to produce the same effect when acting alone. Here, x refers to the inhibition rate produced by the composition, and n indicates the number of individual compounds in the composition.

Experiment [3] deals with T1, α-glucosidase. The experiment is described as follows: CD spectroscopy, secondary structure of α-glucosidase (BeStSel). The settings on record: for β-turn: free enzyme 11.7; for β-sheet: free enzyme 28.8; for random coil: free enzyme 45.2; for α-helix: free enzyme 14.4. The protocol: CD spectra in the far-UV region (190–250 nm) were scanned by using a CD spectrometer (JASCO-1.5 Tokyo, Japan). […] The slit width was set to 1 nm, and the baseline was calibrated with PBS (phosphate buffered saline). CD spectra were averaged over three scans under a constant nitrogen flow, with the buffer signal subtracted. The results were analyzed using the BeStSel database (https://bestsel.elte.hu/index.php, accessed on 16 May 2025).

The target of experiment [4] is T2, Saccharomyces cerevisiae α-glucosidase (Saccharomyces cerevisiae, UniProt P53341).
T2 construct: purchased Shanghai Yuanye Biotechnology Co., Shanghai, China Lot No. M23HS178879 (catalogue number not given)
The experiment is described as follows: biochemical. Particulars: IC50, α-glucosidase 0.2 U/mL, 5 mM pNPG, PBS pH 6.8, 37 °C. The protocol: as §1

Setting [5] is: calculated from the dose–response curve.
Where [6] appears, read: each compound alone at its IC15 concentration, Com1 = mixture of the four at IC15 (117 μM in total).
[7] abbreviates: molar ratio 10:1, α-glucosidase 4 μM.
[8] abbreviates: molar ratio 40:1, α-glucosidase 4 μM.
[9] abbreviates: molar ratio compound:α-glucosidase 10:1, α-glucosidase 4 μM.
Where [10] appears, read: 20 mg/kg oral (acarbose, positive control of each experiment).

The structures appear in SMILES notation. “And” between values parts separate entries of the source, which are not always exact repeats. Equal values may be shown once.

T1 sequence (P53341 whole entry): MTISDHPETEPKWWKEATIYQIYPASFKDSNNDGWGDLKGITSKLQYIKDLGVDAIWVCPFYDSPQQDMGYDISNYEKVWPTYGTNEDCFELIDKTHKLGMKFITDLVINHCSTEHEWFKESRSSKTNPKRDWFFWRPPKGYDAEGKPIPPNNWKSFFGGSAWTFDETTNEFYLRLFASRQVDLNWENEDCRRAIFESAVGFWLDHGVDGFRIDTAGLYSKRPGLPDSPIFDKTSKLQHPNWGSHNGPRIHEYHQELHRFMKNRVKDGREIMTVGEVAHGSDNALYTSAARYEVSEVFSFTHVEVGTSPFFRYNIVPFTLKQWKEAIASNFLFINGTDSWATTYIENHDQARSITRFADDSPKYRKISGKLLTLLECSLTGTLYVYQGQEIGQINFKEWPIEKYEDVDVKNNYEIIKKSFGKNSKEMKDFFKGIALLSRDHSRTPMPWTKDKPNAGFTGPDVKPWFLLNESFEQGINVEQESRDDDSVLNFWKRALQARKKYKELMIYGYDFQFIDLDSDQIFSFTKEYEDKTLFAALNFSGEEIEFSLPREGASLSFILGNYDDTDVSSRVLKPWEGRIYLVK
T2 sequence (P53341 whole entry): as above

For `O=c1c(O)c(-c2ccc(O)c(O)c2)oc2cc(O)cc(O)c12` [C1, quercetin], at α-glucosidase [1], the “type of inhibition on α-glucosidase” value is “mixed-type inhibitors”. Moreover, the Blood glucose levels came out at 14.46 ± 1.06 in the experiment on normal C57BL/6J mice (10 mg/kg oral), 13.41 ± 0.41 in the experiment on normal C57BL/6J mice (50 mg/kg oral) and 12.26 ± 1.65 in the experiment on normal C57BL/6J mice (100 mg/kg oral). The “Rate of blood glucose reduction” value in the experiment with normal C57BL/6J mice (10 mg/kg oral) amounted to 0.77%; in the experiment with normal C57BL/6J mice (50 mg/kg oral), 7.98%; with normal C57BL/6J mice (100 mg/kg oral), 15.87%. In addition, at α-glucosidase [2] (setting [5]), the IC05 is 0.82 µM. Further, the “inhibition rate against α-glucosidase” value on α-glucosidase [2] (each compound alone at its IC05 concentration, Com2 = mixture of the seven at IC05 (381.58 μM in total)) is 4.70 ± 1.66%; on α-glucosidase [2] (setting [6]), 17.16 ± 0.75%. The β-turn was 13.1% on α-glucosidase [3] (setting [7]) and 12.5% on α-glucosidase [3] (setting [8]). The β-sheet at α-glucosidase [3] (setting [7]) was 23.6%; at α-glucosidase [3] (setting [8]) it was 27.9%. Further, the random coil at α-glucosidase [3] (setting [7]) was 49.1%; at α-glucosidase [3] (setting [8]) it was 48.5%. The α-helix at α-glucosidase [3] (setting [8]) was found to be 11.1%; at α-glucosidase [3] (setting [9]), 14.0%.

In the case of `O=c1c(O)c(-c2ccc(O)cc2)oc2cc(O)cc(O)c12` [C2, kaempferol], on α-glucosidase [1], the “type of inhibition on α-glucosidase” value is “mixed-type inhibitors”. In the experiment on normal C57BL/6J mice (10 mg/kg oral), the Blood glucose levels is listed as 12.68 ± 1.47 and the “Rate of blood glucose reduction” value amounted to 9.06%. Further, in the experiment with normal C57BL/6J mice (50 mg/kg oral), the Blood glucose levels was 12.79 ± 0.81 and the “Rate of blood glucose reduction” value is reported as 8.25%. Moreover, in the experiment on normal C57BL/6J mice (100 mg/kg oral), the Blood glucose levels is given as 11.88 ± 1.62 and the “Rate of blood glucose reduction” value was determined as 14.80%. On α-glucosidase [3] (setting [7]), the β-turn is 12.5%, the β-sheet came to 25.3% and the random coil turned out to be 48.2%. For the same compound, at α-glucosidase [3] (setting [8]), the β-turn worked out at 13.3%, the α-helix is recorded as 9.70%, the β-sheet came to 23.9% and the random coil is given as 53.1%. Also, at α-glucosidase [3] (setting [9]), the α-helix is recorded as 14.1%.

Turning to `O=C1C[C@@H](c2ccc(O)cc2)Oc2cc(O)cc(O)c21` [C5, naringenin], at α-glucosidase [1], the “type of inhibition on α-glucosidase” value is listed as “mixed-type inhibitors”. In addition, in the experiment on normal C57BL/6J mice (5 mg/kg oral), the Blood glucose levels is 14.56 ± 1.96 and the “Rate of blood glucose reduction” value is on record as 5.67%. In the experiment with normal C57BL/6J mice (25 mg/kg oral), the Blood glucose levels is recorded as 13.23 ± 0.63 and the “Rate of blood glucose reduction” value is 14.33%. In the experiment with normal C57BL/6J mice (100 mg/kg oral), the Blood glucose levels amounted to 12.39 ± 1.03 and the “Rate of blood glucose reduction” value is 19.76%. In addition, on α-glucosidase [2] (setting [5]), the IC05 was 26.47 µM. In addition, on α-glucosidase [3] (setting [7]), the β-turn was determined as 12.8%, the β-sheet worked out at 20.6% and the random coil is reported as 53.3%. In addition, at α-glucosidase [3] (setting [8]), the β-turn was 13%, the α-helix worked out at 15.3%, the β-sheet was 25.3% and the random coil was determined as 46.5%. Moreover, on α-glucosidase [3] (setting [9]), the α-helix is 13.2%.

In the case of `C[C@@H]1O[C@@H](OC[C@H]2O[C@@H](Oc3c(-c4ccc(O)c(O)c4)oc4cc(O)cc(O)c4c3=O)[C@H](O)[C@@H](O)[C@@H]2O)[C@H](O)[C@H](O)[C@H]1O` [C6, rutin], the IC50 (usually the concentration that gives 50% inhibition) in experiment [4] was 211 ± 11.2 µM. In addition, the Blood glucose levels worked out at 14.68 ± 1.00 in the experiment on normal C57BL/6J mice (2 mg/kg oral), 12.81 ± 1.23 in the experiment on normal C57BL/6J mice (10 mg/kg oral) and 11.83 ± 0.71 with normal C57BL/6J mice (50 mg/kg oral). The figures for the “Rate of blood glucose reduction” value in the experiment with normal C57BL/6J mice (2 mg/kg oral), with normal C57BL/6J mice (10 mg/kg oral) and with normal C57BL/6J mice (50 mg/kg oral) were -1.38%, 11.49% and 18.31%, respectively. The β-turn amounted to 12.1% at α-glucosidase [3] (setting [7]) and 17.6% at α-glucosidase [3] (setting [8]). Also, the β-sheet is on record as 26.9% on α-glucosidase [3] (setting [7]) and 14.3% on α-glucosidase [3] (setting [8]). Also, the figures for the random coil on α-glucosidase [3] (setting [7]) and at α-glucosidase [3] (setting [8]) were 45.5% and 58.8%, respectively. Besides, the α-helix at α-glucosidase [3] (setting [8]) is 9.30%; on α-glucosidase [3] (setting [9]), 15.5%.

`O=c1c(O[C@@H]2O[C@H](CO)[C@@H](O)[C@H](O)[C@H]2O)c(-c2ccc(O)cc2)oc2cc(O)cc(O)c12` [C7, astragalin]: the “effect on postprandial blood glucose” value with normal C57BL/6J mice (30 min after the sucrose load, compared to the model group, C7 at 10, 50 or 250 mg/kg) is “no glucose-lowering effect”.

As to `O=c1c(-c2ccc(O)cc2)coc2cc(O)cc(O)c12` [C8, genistein], the Blood glucose levels in the experiment with normal C57BL/6J mice (25 mg/kg oral) is on record as 13.91 ± 1.00; in the experiment with normal C57BL/6J mice (50 mg/kg oral), 13.26 ± 0.72; with normal C57BL/6J mice (100 mg/kg oral), 12.06 ± 0.82. The “Rate of blood glucose reduction” value in the experiment with normal C57BL/6J mice (25 mg/kg oral) stood at 4.55%; with normal C57BL/6J mice (50 mg/kg oral), 9.01%; in the experiment with normal C57BL/6J mice (100 mg/kg oral) it was 17.24%.

In turn, `O=c1c(O[C@@H]2O[C@H](CO)[C@@H](O)[C@H](O)[C@H]2O)c(-c2ccc(O)c(O)c2)oc2cc(O)cc(O)c12` [C10, isoquercitrin] yielded an IC50 in experiment [4] of 71.7 ± 7.62 µM. In addition, the “type of inhibition on α-glucosidase” value on α-glucosidase [1] is listed as “competitive inhibitor”. For the same compound, in the experiment on normal C57BL/6J mice (10 mg/kg oral), the Blood glucose levels is given as 12.41 ± 2.07 and the “Rate of blood glucose reduction” value worked out at 7.66%. For the same compound, in the experiment on normal C57BL/6J mice (25 mg/kg oral), the Blood glucose levels was found to be 12.21 ± 2.08 and the “Rate of blood glucose reduction” value worked out at 9.15%. Further, in the experiment with normal C57BL/6J mice (50 mg/kg oral), the Blood glucose levels was 10.91 ± 1.78 and the “Rate of blood glucose reduction” value is given as 18.82%. In addition, on α-glucosidase [2] (setting [5]), the “IC15 (concentration corresponding to a 15% inhibition rate)” value is 40 µM. Besides, the “inhibition rate against α-glucosidase” value at α-glucosidase [2] (setting [6]) was 14.93 ± 4.73%. On α-glucosidase [3] (setting [7]), the β-turn was determined as 14.2%, the β-sheet is listed as 24.0% and the random coil amounted to 49.3%. Further, on α-glucosidase [3] (setting [8]), the β-turn is 13.1%, the α-helix is on record as 12.5%, the β-sheet is listed as 16.6% and the random coil was 57.8%. In addition, the α-helix at α-glucosidase [3] (setting [9]) worked out at 12.4%.

Regarding `C[C@H]1O[C@H](O[C@H]2[C@H](O)[C@@H](O)[C@@H](O[C@H]3[C@H](O)[C@@H](O)C(O)O[C@@H]3CO)O[C@@H]2CO)[C@H](O)[C@@H](O)[C@@H]1N[C@H]1C=C(CO)[C@@H](O)[C@H](O)[C@H]1O` (stereo partly shown) [acarbose, reference compound], in the experiment on normal C57BL/6J mice (setting [10]), the Blood glucose levels is 7.39 ± 0.70 and 7.38 ± 0.95 and 7.90 ± 0.56 and 8.09 ± 0.60 and 7.16 ± 0.52 and 7.98 ± 0.58; the “Rate of blood glucose reduction” value is 49.31% and 47.09% and 48.83% and 44.13% and 46.72% and 50.02%.
